Measurements from patent US4094980A, “N-[1-(3',4'-methylenedioxy-phenyl)-propyl-(2)]-N'-phenyl-piperazines and salts thereof” (Boehringer Ingelheim GmbH, priority 1974, dated 1978).

What was measured:
[1] = test system: total serum cholesterol; assay: Reduction of serum cholesterol level (total serum cholesterol, Liebermann-Burchard auto-analyzer); type: in vivo, male laboratory rats; settings: rat
Protocol: 1. Reduction of serum cholesterol level
85 male laboratory rats having a body weight of about 250 gm. The animals were individually kept in Makrolon-cages under controlled conditions. Food and water were freely accessible to the animals at all times, except on the day on which the blood samples were taken.
The test compounds were administered once daily per os by means of an esophageal sound.
Determination of total cholesterol in serum (mgm/100 ml) with the auto-analyzer according to Liebermann-Burchard (see J. Levine et al, Technicon-Symposium, 1967, Vol. 1, pg. 25).
The total serum cholesterol was determined in all test animals prior to the beginning of the test (day O), as well as on the 8th, 14th and 21st day. The blood sample was taken from the retrobulbar venous plexus. The animals were fasted for about 16 hours prior to determination of the serum cholesterol.

[2] = test system: adult laboratory mice of the NMRI-strain; assay: CNS-Depression: Sliding test (loss of holding reflex on inclined glass plate); type: in vivo; settings: po, mouse; dose at which 50% of animals begin to slide off the glass plate; Probit-method
Protocol: A statistically significant number of adult laboratory mice of the NMRI-strain are used as test animals. The test compound is administered perorally as a suspension in tylose by means of an esophageal sound, and the animal is placed on an inclined plate of glass. If the administered dose of the test compound has a CHS-depressing effect upon the animal, the treated mouse loses its normal holding reflex and slides off the plate. The test is repeated at varying dosage levels, and a median effective dose (ED50) is determined by the so-called Probit-method, i.e. the dose at which 50% of the test animals begin to slide off the glass plate.

[3] = test system: adult laboratory mice of the NMRI-strain; assay: CNS-Depression: Ataxia (atactic walking); type: in vivo; settings: po, mouse; dose at which ataxia occurs in 50% of the animals; Probit-method
Protocol: A statistically significant number of adult laboratory mice of the NMRI-strain are used as the test animals. The test compound is administered perorally as a suspension in tylose by means of an esophageal sound, and the treated animal is observed for evidence of atactic (uncoordinated) walking. The test is repeated at varying dosage levels, and a median effective dose (ED50) is determined by the Probit-method, i.e. the dose at which ataxia occurs in 50% of the animals.

[4] = day 0 (prior to the beginning of the test, baseline), group of 25 mgm/kg once daily per os
[5] = day 8, 25 mgm/kg once daily per os
[6] = day 14, 25 mgm/kg once daily per os
[7] = day 21, 25 mgm/kg once daily per os
[8] = day 0 (prior to the beginning of the test, baseline), group of 50 mgm/kg once daily per os
[9] = day 8, 50 mgm/kg once daily per os
[10] = day 14, 50 mgm/kg once daily per os
[11] = day 21, 50 mgm/kg once daily per os

Structure (SMILES) | Average value of total serum cholesterol [1, 4] [mgm/100 ml] | Average value of total serum cholesterol [1, 5] [mgm/100 ml] | Average value of total serum cholesterol [1, 6] [mgm/100 ml] | Average value of total serum cholesterol [1, 7] [mgm/100 ml] | ED50 [2] [mg/kg] | ED50 [3] [mg/kg] | Average value of total serum cholesterol [1, 8] [mgm/100 ml] | Average value of total serum cholesterol [1, 9] [mgm/100 ml] | Average value of total serum cholesterol [1, 10] [mgm/100 ml] | Average value of total serum cholesterol [1, 11] [mgm/100 ml]
CC(Cc1ccc2c(c1)OCO2)N1CCN(c2ccc(Cl)cc2Cl)CC1 (stereo not drawn) [A, n-[1-(3,4-methylenedioxy-phenyl)-propyl-(2)]-N'-(2,4-dichloro-phenyl)-piperazine] | 96.7 | 27.5 | 12.5 | 13.0 | 190 | 160 | – | – | – | –
COc1ccc(N2CCN(C(C)Cc3ccc4c(c3)OCO4)CC2)c(C)c1 (stereo not drawn) [B, n-[1-(3,4-methylenedioxy-phenyl)-propyl(2)]-N'-(2-methyl-4-methoxy-phenyl)-piperazine] | 97.9 | 35.2 | 21.3 | 21.2 | 960 | 120 | – | – | – | –
CC(Cc1ccc2c(c1)OCO2)N1CCN(c2ccccc2Cl)CC1 (stereo not drawn) [Compound C, n-[1-(3,4-methylenedioxy-phenyl)-propyl(2)]-N'-(2-chlorophenyl)-piperazine] | 38.3 | 31.7 | 24.3 | 26.2 | 2.2 | 2.2 | – | – | – | –
COc1ccccc1N1CCN(C(C)Cc2ccc3c(c2)OCO3)CC1 (stereo not drawn) [Compound D] | – | – | – | – | > 14 | 39 | 112.9 | 87.3 | 86.3 | 82.1
Cc1cccc(C)c1N1CCN(C(C)Cc2ccc3c(c2)OCO3)CC1 (stereo not drawn) [E, n-[1-(3,4-methylenedioxy-phenyl)-propyl(2)]-N'-(2,6-dimethyl-phenyl)-piperazine] | – | – | – | – | 25 | 105 | 107.3 | 71.2 | 61.7 | 63.5
